In series [1] the test system is THP-1 cells. Kind of series: Cell viability assay (MTT). It counts as cell-based. As to conditions: compound 5 μM alone, 18 h, normalized to DMSO as 100%. The method, then:
THP-1 cells were plated in 96-well plates (10^5 cells/well) in 100 μL RPMI supplemented with 10% FBS, 100 U/mL penicillin and 100 μg/ml streptomycin. Compounds were dissolved in DMSO at 1 mM stock solution and were further diluted to 10 μM in the assay medium. 100 μL of this solution was added to the cells to obtain a final compound concentration of 5 μM ([…]). After 18 h incubation, a solution of MTT in assay media (0.5 mg/mL) was added to each well and further incubated for 4 to 6 h, followed by addition of cell lysis buffer (15% w/v SDS and 0.12% v/v 12N HCl aqueous solution), incubated overnight, and then absorbance measured at 570 nm using 650 nm as reference using Tecan Infinite M200 plate reader.

Series [2] has as its system NF-κB. Kind of series: Measurement of NF-κB activation using THP1-Blue NF-κB cells (SEAP). The format is cell-based. The note with it: for activity at 5 µM: 20 h, two point normalized, compound 1 as 200%; for NF-κB activity (SAR discussion, in words): evaluated in both the presence and absence of LPS.
Series [3] concerns NF-κB. Kind of series: cell-based NF-κB FRET assay. The note with it: compound + LPS; two point normalized, compound 1 as 200%, LPS (10 ng/mL) as 100%. An excerpt:
Site A was assigned the 4-substituent of thiazole ring, site B was the thiazole ring itself, site C was the central amide bond in the structure, site D was the benzene ring bearing 1,4-carboxyl and sulfamoyl group, site E was the sulfonamide functional group and site F was the amide substituent on the sulfamoyl group.

[4] abbreviates: compound 5 μM + LPS, LPS (10 ng/mL) as 100%, read-out: NF-κB SEAP Compound + LPS % Activation.
Setting [5] is: compound 5 μM alone, LPS or DMSO as 100%, read-out: NF-κB SEAP Compound alone % Activation.

Structures are written as SMILES. Entries after “also recorded” stand apart in the source; their conditions may differ. Like-named read-outs stand apart in the source and are kept apart here.

For `Cc1ccccc1-c1csc(NC(=O)c2ccc(S(=O)(=O)N3CCCCC3)cc2)n1` [Compound 12b, 4-(piperidin-1-ylsulfonyl)-N-(4-(o-tolyl)thiazol-2-yl)benzamide], in series [1], the “MTT Compound alone % Viability” value is listed as 95.69%. The activity at 5 µM in series [2] (setting [4]) was found to be 105%; in series [2] (setting [5]) it was 99.2%. Moreover, in series [2], the “NF-κB activity (SAR discussion, in words)” value (“NF-κB activity” for short) was “inactive”. Also, the “NF-κB FRET Compound + LPS % Activation” value in series [3] stood at 100.13%.

For `Cc1cccc(-c2csc(NC(=O)c3ccc(S(=O)(=O)N4CCCCC4)cc3)n2)c1` [Compound 12c, 4-(piperidin-1-ylsulfonyl)-N-(4-(m-tolyl)thiazol-2-yl)benzamide], in series [1], the “MTT Compound alone % Viability” value was 96.06%. In addition, the figures for the activity at 5 µM in series [2] (setting [4]) and in series [2] (setting [5]) were 98.6% and 99.5%, respectively. For the same compound, the “NF-κB activity” value in series [2] is “inactive”. The “NF-κB FRET Compound + LPS % Activation” value in series [3] is listed as 78.98%.

For `Cc1ccc(Br)c(-c2csc(NC(=O)c3ccc(S(=O)(=O)N4CCCCC4)cc3)n2)c1` [Compound 12d, N-(4-(2-bromo-5-methylphenyl)thiazol-2-yl)-4-(piperidin-1-ylsulfonyl)benzamide], the activity at 5 µM in series [2] (setting [4]) came to 223%; in series [2] (setting [5]) it was 254%. Moreover, the “NF-κB activity” value in series [2] was “active; also recorded: most potent”. Also, in series [3], the “NF-κB FRET Compound + LPS % Activation” value is 197.32%.

For `Cc1ccc(Br)cc1-c1csc(NC(=O)c2ccc(S(=O)(=O)N3CCCCC3)cc2)n1` [Compound 12e, N-(4-(5-bromo-2-methylphenyl)thiazol-2-yl)-4-(piperidin-1-ylsulfonyl)benzamide], the “MTT Compound alone % Viability” value in series [1] is on record as 91.50%. Further, the values for the activity at 5 µM in series [2] (setting [4]) and in series [2] (setting [5]) were 213% and 207%, respectively. In addition, the “NF-κB activity” value in series [2] is reported as “active”. Moreover, the “NF-κB FRET Compound + LPS % Activation” value in series [3] is 189.97%.

In the case of `Cc1ccc(C)c(Cc2csc(NC(=O)c3ccc(S(=O)(=O)N4CCCCC4)cc3)n2)c1` [Compound 12f, N-(4-(2,5-dimethylbenzyl)thiazol-2-yl)-4-(piperidin-1-ylsulfonyl)benzamide], the “MTT Compound alone % Viability” value in series [1] is on record as 97.02%. Besides, the figures for the activity at 5 µM in series [2] (setting [4]) and in series [2] (setting [5]) were 108% and 102%, respectively. Further, the “NF-κB activity” value in series [2] was “inactive”.

Consider `Cc1csc(NC(=O)c2ccc(S(=O)(=O)N3CCCCC3)cc2)n1` [Compound 12g, N-(4-methylthiazol-2-yl)-4-(piperidin-1-ylsulfonyl)benzamide], for which, in series [1], the “MTT Compound alone % Viability” value was determined as 114.29%. Also, the activity at 5 µM in series [2] (setting [4]) came to 101%; in series [2] (setting [5]) it was 99.9%. For the same compound, the “NF-κB activity” value in series [2] is “None of these molecules had any NF-κB activity”. In addition, the “NF-κB FRET Compound + LPS % Activation” value in series [3] is given as 110.48%.

As for `CCc1csc(NC(=O)c2ccc(S(=O)(=O)N3CCCCC3)cc2)n1` [Compound 12h, N-(4-ethylthiazol-2-yl)-4-(piperidin-1-ylsulfonyl)benzamide], the “MTT Compound alone % Viability” value in series [1] worked out at 122.75%. Also, the activity at 5 µM in series [2] (setting [4]) is 94%; in series [2] (setting [5]), 98.7%. For the same compound, the “NF-κB activity” value in series [2] is on record as “None of these molecules had any NF-κB activity”. Moreover, in series [3], the “NF-κB FRET Compound + LPS % Activation” value worked out at 108.38%.

As for `CC(C)(C)c1csc(NC(=O)c2ccc(S(=O)(=O)N3CCCCC3)cc2)n1` [Compound 12k, N-(4-(tert-butyl)thiazol-2-yl)-4-(piperidin-1-ylsulfonyl)benzamide], in series [1], the “MTT Compound alone % Viability” value came out at 127.74%. Moreover, the activity at 5 µM in series [2] (setting [4]) came out at 94.1%; in series [2] (setting [5]), 99.5%. In series [2], the “NF-κB activity” value is “None of these molecules had any NF-κB activity”.

For `Cc1cccc(C)c1-c1csc(NC(=O)c2ccc(S(=O)(=O)N3CCCCC3)cc2)n1` [Compound 12p, N-(4-(2,6-dimethylphenyl)thiazol-2-yl)-4-(piperidin-1-ylsulfonyl)benzamide], the “MTT Compound alone % Viability” value in series [1] is 99.64%. Besides, the activity at 5 µM worked out at 209% in series [2] (setting [4]) and 185% in series [2] (setting [5]). In series [2], the “NF-κB activity” value is on record as “retained activity”.

Turning to `O=C(Nc1nc(-c2cccc3ccccc23)cs1)c1ccc(S(=O)(=O)N2CCCCC2)cc1` [Compound 12q, N-(4-(naphthalen-1-yl)thiazol-2-yl)-4-(piperidin-1-ylsulfonyl)benzamide], the “MTT Compound alone % Viability” value in series [1] turned out to be 92.71%. Further, the activity at 5 µM in series [2] (setting [4]) stood at 200%; in series [2] (setting [5]), 198%. In addition, the “NF-κB activity” value in series [2] is listed as “equally potent”.

Consider `CCc1ccc(C)c(-c2csc(NC(=O)c3ccc(S(=O)(=O)N4CCCCC4)cc3)n2)c1` [Compound 12u, N-(4-(5-ethyl-2-methylphenyl)thiazol-2-yl)-4-(piperidin-1-ylsulfonyl)benzamide], for which the activity at 5 µM in series [2] (setting [4]) is 200%; in series [2] (setting [5]), 216%. The “NF-κB activity” value in series [2] is given as “resulted in activity”.

As to `Cc1ccc(C)c(-c2cnc(NC(=O)c3ccc(S(=O)(=O)N4CCCCC4)cc3)s2)c1` [Compound 18e, N-(5-(2,5-dimethylphenyl)thiazol-2-yl)-4-(piperidin-1-ylsulfonyl)benzamide], the activity at 5 µM in series [2] (setting [4]) was 95.1%; in series [2] (setting [5]) it was 98.3%. Besides, the “NF-κB activity” value in series [2] is listed as “none of these molecules that replaced the thiazole functionality were active”.

Consider `Cc1ccc(C)c(-c2nnc(NC(=O)c3ccc(S(=O)(=O)N4CCCCC4)cc3)s2)c1` [Compound 18f, N-(5-(2,5-dimethylphenyl)-1,3,4-thiadiazol-2-yl)-4-(piperidin-1-ylsulfonyl)benzamide], for which, in series [1], the “MTT Compound alone % Viability” value is 89.80%. Further, the activity at 5 µM in series [2] (setting [4]) was found to be 148%; in series [2] (setting [5]), 99.7%. Besides, the “NF-κB activity” value in series [2] is reported as “none of these molecules that replaced the thiazole functionality were active”.

For `Cc1ccc(C)c(-c2nc(NC(=O)c3ccc(S(=O)(=O)N4CCCCC4)cc3)sc2-c2ccccc2)c1` [Compound 18i, N-(4-(2,5-dimethylphenyl)-5-phenylthiazol-2-yl)-4-(piperidin-1-ylsulfonyl)benzamide], the figures for the activity at 5 µM in series [2] (setting [4]) and in series [2] (setting [5]) were 98.4% and 98.3%, respectively. Besides, the “NF-κB activity” value in series [2] is “completely inactive”.

Turning to `CCOc1sc(NC(=O)c2ccc(S(=O)(=O)N3CCCCC3)cc2)nc1-c1cc(C)ccc1C` [Compound 18l, N-(4-(2,5-dimethylphenyl)-5-ethoxythiazol-2-yl)-4-(piperidin-1-ylsulfonyl)benzamide], the results for the activity at 5 µM in series [2] (setting [4]) and in series [2] (setting [5]) were 111% and 104%, respectively. Also, the “NF-κB activity” value in series [2] was “partial activity”.

Take `CCc1sc(NC(=O)c2ccc(S(=O)(=O)N3CCCCC3)cc2)nc1-c1cc(C)ccc1C` [Compound 18r, N-(4-(2,5-dimethylphenyl)-5-ethylthiazol-2-yl)-4-(piperidin-1-ylsulfonyl)benzamide]: in series [1], the “MTT Compound alone % Viability” value was found to be 103.66%. Besides, the activity at 5 µM in series [2] (setting [4]) and in series [2] (setting [5]) was 179% each time. In addition, the “NF-κB activity” value in series [2] is “retained activity”.

Regarding `Cc1ccc(C)c(-c2nc(NC(=O)c3ccc(S(=O)(=O)N4CCCCC4)cc3)sc2C#CCCCO)c1` [Compound 18u, N-(4-(2,5-dimethylphenyl)-5-(5-hydroxypent-1-yn-1-yl)thiazol-2-yl)-4-(piperidin-1-ylsulfonyl)benzamide], in series [1], the “MTT Compound alone % Viability” value was 104.08%. Further, the activity at 5 µM in series [2] (setting [4]) worked out at 134%; in series [2] (setting [5]), 100%.

Turning to `C#CCN(C(=O)c1ccc(S(=O)(=O)N2CCCCC2)cc1)c1nc(-c2cc(C)ccc2C)cs1` [Compound 34d, N-(4-(2,5-dimethylphenyl)thiazol-2-yl)-4-(piperidin-1-ylsulfonyl)-N-(prop-2-yn-1-yl)benzamide], the activity at 5 µM in series [2] (setting [4]) is 97.7%; in series [2] (setting [5]) it was 101%. Further, the “NF-κB activity” value in series [2] is “inactive”.

For the compound `Cc1ccc(C)c(-c2csc(NC(=O)c3ccc(S(=O)(=O)N4CCCCC4)s3)n2)c1` [Compound 46c, N-(4-(2,5-dimethylphenyl)thiazol-2-yl)-5-(piperidin-1-ylsulfonyl)thiophene-2-carboxamide], the figures for the activity at 5 µM in series [2] (setting [4]) and in series [2] (setting [5]) were 97.2% and 106%, respectively. Further, the “NF-κB activity” value in series [2] was “none of these modifications at site D or E were tolerated”.

Regarding `CCCC#Cc1sc(NC(=O)c2ccc(S(=O)(=O)N3CCC(CCC)CC3)cc2)nc1-c1cc(C)ccc1Br` [Compound 65, N-(4-(2-bromo-5-methylphenyl)-5-(pent-1-yn-1-yl)thiazol-2-yl)-4-((4-propylpiperidin-1-yl)sulfonyl)benzamide], the “NF-κB activity” value in series [2] was “very potent and showed better potency than compound 1”.

For the origin of these results see US12091393B2, “Small molecule vaccine adjuvant for enhancing or prolonging immune response” (The Regents of the University of California, priority 2018, dated 2024).
